Results: ChEMBL document CHEMBL1201862, “PubChem BioAssay data set” (2004)
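These data come from cells grown in 96-well plates and exposed to compound for 48 hours at five concentrations. At the GI50, growth is halved.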 Calls of active or inactive are those of the source. Rule as the data show it: active = GI50 up to about 1.1 µM and inactive = higher.

Columns and labels:
Experiment in all cases: growth of human tumour cells (NCI), 48 h
[1] = system: SF-539
[2] = system: NCI-H460
[3] = system: TK-10
[4] = system: HCT-15
[5] = system: UACC-257
[6] = system: SR
[7] = system: IGROV-1
[8] = system: NCI-H23
[9] = system: RXF 393
[10] = system: DMS-114
[11] = system: HCT-116
[12] = system: A498
[13] = system: ACHN
[14] = system: Malme-3M
[15] = system: OVCAR-4
[16] = system: SK-MEL-5
[17] = system: HOP-62
[18] = system: HL-60
[19] = system: SF-295
[20] = system: SN12C
[21] = system: MDA-N
[22] = system: LOX IMVI
[23] = system: T47D
[24] = system: HT-29
[25] = system: KM12
[26] = system: RPMI-8226
[27] = system: SK-MEL-28
[28] = system: SW-620
[29] = system: HCC 2998
[30] = system: HOP-18
[31] = system: UO-31
[32] = system: NCI-H226
[33] = system: SNB-19
[34] = system: KM-20L2
[35] = system: XF498
[36] = system: HOP-92
[37] = system: M19-MEL
[38] = system: 786-0
[39] = system: CCRF-CEM
[40] = system: DMS-273
[41] = system: OVCAR-3
[42] = system: NCI-H522
[43] = system: M14
[44] = system: BT-549
[45] = system: Hs-578T
[46] = system: SF-268
[47] = system: COLO 205
[48] = system: DU-145
[49] = system: MOLT-4
[50] = system: MDA-MB-231
[51] = system: A549
[52] = system: DLD-1
[53] = system: RXF 631
[54] = system: LXFL 529
[55] = system: SK-OV-3
[56] = system: SK-MEL-2
[57] = system: MCF7
[58] = system: SNB-75
[59] = system: OVCAR-8
[60] = system: SNB-78
[61] = system: EKVX
[62] = system: CAKI-1
[63] = system: UACC-62
[64] = system: K562
[65] = system: OVCAR-5
[66] = system: PC-3
[67] = system: U-251

Structure (SMILES): O=[N+]([O-])c1ccc(C2CC(c3ccccc3Cl)=Nc3ccccc3[S+]2[O-])cc1 (configuration not stated)
- GI50 [1]: 7190 nM (inactive)
- GI50 [2]: 4270 nM (inactive)
- GI50 [3]: 8020 nM (inactive)
- GI50 [4]: 2210 nM
- GI50 [5]: 15800 nM (inactive)
- GI50 [6]: 2840 nM (inactive)
- GI50 [7]: 2770 nM (inactive)
- GI50 [8]: 4130 nM (inactive)
- GI50 [9]: 1800 nM (inactive)
- GI50 [10]: 2050 nM (inactive)
- GI50 [11]: 1880 nM (inactive)
- GI50 [12]: 2340 nM (inactive)
- GI50 [13]: 2010 nM (inactive)
- GI50 [14]: 9910 nM (inactive)
- GI50 [15]: 2310 nM (inactive)
- GI50 [16]: 5410 nM (inactive)
- GI50 [17]: 7190 nM (inactive)
- GI50 [18]: 1190 nM (inactive)
- GI50 [19]: 5550 nM (inactive)
- GI50 [20]: 2260 nM (inactive)
- GI50 [21]: 9510 nM (inactive)
- GI50 [22]: 2070 nM (inactive)
- GI50 [23]: 12800 nM (inactive)
- GI50 [24]: 2500 nM (inactive)
- GI50 [25]: 3820 nM (inactive)
- GI50 [26]: 1770 nM (inactive)
- GI50 [27]: 5180 nM (inactive)
- GI50 [28]: 1980 nM (inactive)
- GI50 [29]: 2920 nM (inactive)
- GI50 [30]: 14100 nM (inactive)
- GI50 [31]: 2060 nM (inactive)
- GI50 [32]: 5860 nM (inactive)
- GI50 [33]: 3630 nM (inactive)
- GI50 [34]: 2590 nM (inactive)
- GI50 [35]: 5890 nM (inactive)
- GI50 [36]: 15300 nM (inactive)
- GI50 [37]: 2770 nM (inactive)
- GI50 [38]: 1800 nM (inactive)
- GI50 [39]: 1480 nM (inactive)
- GI50 [40]: 2950 nM (inactive)
- GI50 [41]: 3480 nM (inactive)
- GI50 [42]: 1150 nM (inactive)
- GI50 [43]: 5710 nM (inactive)
- GI50 [44]: 13700 nM (inactive)
- GI50 [45]: 2750 nM (inactive)
- GI50 [46]: 8830 nM (inactive)
- GI50 [47]: 7690 nM (inactive)
- GI50 [48]: 15500 nM (inactive)
- GI50 [49]: 1900 nM (inactive)
- GI50 [50]: 2290 nM (inactive)
- GI50 [51]: 9640 nM (inactive)
- GI50 [52]: 2060 nM (inactive)
- GI50 [53]: 5270 nM (inactive)
- GI50 [54]: 1790 nM (inactive)
- GI50 [55]: 19800 nM (inactive)
- GI50 [56]: 15000 nM (inactive)
- GI50 [57]: 2340 nM (inactive)
- GI50 [58]: 5550 nM (inactive)
- GI50 [59]: 2870 nM (inactive)
- GI50 [60]: 13100 nM (inactive)
- GI50 [61]: 15000 nM (inactive)
- GI50 [62]: 2480 nM (inactive)
- GI50 [63]: 2690 nM (inactive)
- GI50 [64]: 1370 nM (inactive)
- GI50 [65]: 3710 nM (inactive)
- GI50 [66]: 4670 nM (inactive)
- GI50 [67]: 3050 nM (inactive)
